Data reported in US11964943B2, “3,5-diarylidenyl-n-substituted-piperid-4-one-derived inhibitors of Stat3 pathway activity and uses thereof” (priority 2017, dated 2024).

Key:
[1] = test system: DU145 cells; experiment: SRB growth inhibition and combination index with cisplatin, DU145; format: cell-based
Protocol: The affected fractions were calculated from the SRB or MTT assay absorbance values and were registered to derive the respective CI values and isobolograms. A CI value of less than 1 (one) indicates synergy.
(§1) The SRB assay was used to assess cell growth inhibition by IE-8 alone and in combination with cisplatin. […] For combination studies drug treatments were sequential with IE-8 applied first followed by cisplatin for 1 h. […] Absorbance was read at 540 nm and results were normalized to untreated controls. For analysis of GC50 values and statistical significance, non-linear regression analysis with a comparison of fits was performed with the GraphPad Prism 6.0 software.
as §1, with “Drug Combination studies. Sulforhodamine B (SRB) Cell Growth Inhibition Assay. The” for “The”, “8 h” for “IE-8”

[2] = test system: HCT116-oxaliplatin resistant and A2780-cisplatin resistant cells; experiment: 2D monolayer cytotoxicity in platinum-resistant cells; format: cell-based; conditions: compared with HO-3867, atovaquone, curcumin and stattic
Protocol: MIT assay. Individual drug treatments and combinations were carried out as with the SRB assay. The MTT assay was carried out as previously (see Cytotoxicity studies sections) with the difference that it was completed in 96 h.

[3] = test system: HT1080 fibrosarcoma spheroids; experiment: Spheroid invasion assay; format: cell-based; conditions: 3 μM, 90 h observation
Protocol: Multicellular spheroids from HT-1080 cells were grown for 4 days in RPMI 1640 medium in 96-well plates (Nunclon Sphera, Thermo Fisher) and their size was measured with an inverted microscope (Olympus CKX41, 4× objective) and Cell^F software. […] Growth factor reduced Matrigel (Becton Dickinson) was thawed on ice and diluted in 4° C. cold medium to a final concentration of 300 μg/mL with or without IE-8. One hundred fifty microliter of these solutions were added to the wells containing spheroids in 50 μL medium. The plate was incubated in a humidified atmosphere with 5% CO2 in air at 37° C. Both untreated and treated spheroids were monitored simultaneously with a JuliBr live cell analyzer (NanoEntek) for 90 h to visualize spheroid invasion, and every hour the relative cross-sectional area of the spheroids was measured.

[4] = test system: HCT116-oxaliplatin resistant xenografts; experiment: In vivo survival experiment; set-up: species or system mice
Protocol: Six- to eight-week old female Balb/c mice (weighing about 20 g) were purchased from the Harlan Laboratories, San Pietro al Natisone, Italy. The animals were kept in a pathogen-free environment, and every procedure was done in a laminar airflow cabinet. HCT16-oxaliplatin resistant cells (5×10^5) were injected subcutaneously into the right flank of female Balb/c mice. The animals were treated with IE-8 intraperitoneally (30 mg kg-1; solutions freshly prepared in the standard mixture of 1% DMSO, Cremophor, Ethanol and H2O) on days 10, 13 and 17. The animals were controlled for distress development every day. […] Control and treatment group n=4.

[5] = test system: HCT116-oxaliplatin resistant cells; experiment: Colony formation assay with oxaliplatin; format: cell-based; conditions: 10 days
Protocol: HCT116-oxaliplatin res cells were seeded at 2000 cells/well in 6-well plates and allowed to adhere overnight. The next day, oxaliplatin and IE-8 were added simultaneously. First, the specific amount of cells solution was removed from each well and afterwards the same volume of the appropriate drug dilution was added to achieve the right concentration. IE-8 was diluted in DMA. Cells were also treated with Oxaliplatin and IE-8 alone. The plates were left the incubator and the cells were allowed to grow colonies for 10 days. After 10 days the entire cell solution was removed from each well, which was subsequently washed with 500 μl of PBS. 1 ml of cold 100% methanol was added and the plates were incubated for 30 minutes at 4 C. After a second wash, the cells were stained with 1 ml of […] staining dye for 2-3 minutes, rinsed with water, allowed to dry overnight and the colonies were quantified using a gel imaging system (Fusion Fx7) and its in-built colony counter software.

Row | Compound | combination index (CI) with cisplatin ([1]; IE-8 18 h then cisplatin 1 h, fixed ratio 1:50) | cytotoxicity relative to other Stat3 inhibitors [2] | rate of confluence (invasion) of spheroids in matrigel [3] | body weight loss ([4]; 30 mg/kg intraperitoneally on days 10, 13 and 17) | prolongation of survival versus vehicle ([4]; 30 mg/kg intraperitoneally on days 10, 13 and 17, n=4) | combination index (CI) with cisplatin ([1]; 5 μM IE-8 1 h then cisplatin 1 h, non-fixed ratio) | number of colonies ([5]; 0.1 μM IE-8 + 1 μM oxaliplatin) | number of colonies ([5]; 0.1 μM IE-8 + 2 μM oxaliplatin)
1 | 3,5-Di(3,4,5-trimethoxybenzylidene)-1-phenylpiperidin-4-one [IE-8] | > 1 | more cytotoxic than the other tested inhibitors |  |  |  |  |  | 
2 | COc1cc(/C=C2\CN(c3ccccc3)C/C(=C\c3cc(OC)c(OC)c(OC)c3)C2=O)cc(OC)c1OC [IE-8, 3,5-Di(3,4,5-trimethoxybenzylidene)-1-phenylpiperidin-4-one] |  |  | markedly reduced and also delayed | No body weight loss was observed | about 20 days | below 1 | about 60 | Less than 25
